{"source": "patent US20220339260A1", "about": "“METHOD FOR PRODUCING INSULIN-PRODUCING CELL USING DIHYDROINDOLIZINONE DERIVATIVES” (TOKYO INSTITUTE OF TECHNOLOGY, priority 2019, published 2022)", "key": {"[1]": {"test_system": "human iPS cell Toe strain", "assay": "Effect to promote differentiation from human iPS cells into insulin-producing cells (insulin-positive cell rate, Reference Example 1)", "type": "cell-based", "conditions": "10 μM; average of 30 cases; untreated control 4.9%", "description": "The evaluation system of the effect (efficacy) to promote differentiation from human iPS cells into insulin-producing cells was constructed with reference to known information (Non Patent Document 6). Further, the medium used in each differentiation stage was also produced with reference to known information (differentiation media A to E (Media A to E) described in Non Patent Document 6 were used respectively for stages 1 to 5; however, a medium free from GLP-1 receptor agonist and nicotinamide was used as differentiation medium E).\nIn order to evaluate the efficacy of each compound, the compound of Synthesis Example 1 was used as a positive control, and dimethylsulfoxide (DMSO) (SIGMA, D2650) with a final concentration of 0.1% was used as a control untreated with compounds. Each compound was dissolved in DMSO, and two types of compound solutions were prepared so as to have final concentrations of 2 μM and 10 μM after the compound was added to the medium. In the following evaluation, the compound solutions were added to the medium to 0.1% that is the final concentration of DMSO.\nFirst, induction from human iPS cell Toe strain (National Institutes of Biomedical Innovation, Health and Nutrition) into cells on day 7 of culture (2 days after replacement with differentiation medium C (cells in the differentiation process from FOXA2-positive primitive gut tube cells into PDX1-positive pancreatic progenitor cells)) was performed according to the method of Non Patent Document 6 for “inducing differentiation from human iPS cells into pancreatic β cells”, and the cells were collected and thereafter stored in liquid nitrogen using Bambanker (NIPPON Genetics Co, Ltd.) at 1×10^7 cells/mL/tube, to produce a cell stock for evaluation. The cell stock was dissolved at the start of the evaluation of efficacy, suspended in differentiation medium C for stage 3 (DMEM high glucose (Life technologies, 11965092), 0.25 μM SANT-1, 0.1 μM LDN193189 (Stemgent, 04-0074), 10 μM SB431542, 2 μM Retinoic acid (Stemgent, 04-0021), 1% B27 serum free supplement (Life technologies, 17504044) and thereafter seeded in a 96-well plate (Corning, #3340) coated with Synthemax II (Corning, #5656) at 1×10^5 cells/well. After culturing for 2 days, the medium was removed, and new differentiation medium C for stage 3 with the compound or only DMSO added was added thereto at 100 μL/well. After culturing for 2 days, the medium was removed, and new differentiation medium D for stage 4 (DMEM high glucose, 0.1 μM LDN193189, 5 μM TGF-β type I receptor kinase inhibitor II (Calbiochem 616452), 0.3 μM (−)-indolactam V (Enzo life science ALX-420-011-C300), 1% B27 serum free supplement) with the compound or only DMSO added was added thereto at 100 μL/well. After culturing for 2 to 3 days, the medium was removed, and new differentiation medium E for stage 5 (GLP-1 receptor agonist and nicotinamide-free; Knockout […] (Life technologies, 12660012), 1% B27 serum free supplement) with the compound or only DMSO added was added thereto at 200 μL/well. After culturing for 2 days, the medium was removed, and a 4% paraformaldehyde phosphorus acid buffer (Wako, 163-20145) was added thereto at 150 μL/well and left standing for 30 to 60 minutes at room temperature to fix the cells. A phosphorus acid buffer (PBS) (Takara, T9181) containing 1% Triton X-100 (Sigma, T8787) was left standing for 15 minutes at room temperature, then washed with PBS-T (Takara, T9183), and was blocked for 1 hour using 20% Blocking One (Nacalai tesque, Tokyo, Japan) diluted with PBS-T at room temperature. After the removal of Blocking One, guinea pig anti-insulin antibody (Abcam, ab7842) diluted 200-fold with 20% Blocking One was added thereto at 50 μL/well, followed by standing at 4° C. overnight. […]"}, "Toe human iPS cells": {"test_system": "Toe human iPS cells", "assay": "Differentiation of Toe human iPS cells into iPS-β cells, monolayer culture, protocol #1", "type": "cell-based", "conditions": "treatment from later stage of stage 3 to initial stage of stage 5", "description": "The Toe human iPS cells were seeded in CellBIND 6-well (CORNING, CLS3335) cell culture plate coated with synthemax II, and differentiated into primitive gut tube cells by the previously described method (Shahjalal et al., 2014). The cells were dissociated with TrypLE Select (Thermo Fisher, 12563011) and cryopreserved in BanBanker (Nippon genetics) at a density of 1.0 to 2.0×10^7 cells/mL until use. One day before compound addition, the cells were thawed in a medium for stage 3 (DMEM (high glucose), 0.25 μM SANT1 (Wako, 197-16351), 0.1 μM LDN193189 (Stemgent, 04-0074), 10 μM SB431542, 2 μM retinoic acid, 1% B27-free serum supplement (Life Technologies, 17504044), and seeded at 150,000 cells per well in CellBIND 96-well (Corning, 3340) cell culture plated coated with synthemax II. The cells were cultured for 1 day in a medium for stage 3 containing a test compound or a negative control (0.01% DMSO). The cells were further cultured for 2 days and 1 day in media for stages 4 and 5, respectively, containing the test compound or the negative control. On the next day, the cells were fixed in 4% paraformaldehyde for analysis using a high-content imager."}}, "data": [{"smiles": "O=C1CCC(C(=O)Nc2ncc(-c3ccccc3)s2)n2cccc21", "note": "(centres unmarked) [Synthesis Example 1, 8-Oxo-N-(5-phenylthiazol-2-yl)-6,7-dihydro-5H-indolizine-5-carboxamide]", "values": [{"measurement": "average insulin-positive cell rate", "setting": "[1]", "value": 13, "unit": "%"}, {"measurement": "differentiation into iPS-β cells (INS+ cells)", "setting": "Toe human iPS cells", "value": "enhanced differentiation into iPS-β cells"}]}]}
